Experimental data: patent publication US5164370A, “Peptide analogues of insulin-like growth factor 1 (IGF-1) or factor 2 (IGF-2)” (Gropep Pty. Ltd., priority 1987, dated 1992)
Where no end group is shown, it is not given here.

Tests used:
[1] = tested on: L6 myoblasts; test: incorporation of 3H-labelled leucine into total cell protein of L6 myoblasts (protein synthesis bioassay); type: cell-based; settings: for Concentration (percent of that required to give a half-response with hIGF-1): hIGF-1 half-response 12 ng/ml = 100, lower = more potent
From the text: Bioassays of purified synthetic peptides have been compared with pure human/bovine/porcine IGF-1. The assays involve the incorporation of 3H-labelled leucine into the total cell protein of L6 myoblasts as described by Francis et al. (Biochem. J. 233:207-213, 1986).

[2] = tested on: purified binding protein; test: competition for binding of labelled human/bovine/porcine IGF-1 to purified binding protein; settings: competition with labelled human/bovine/porcine IGF-1
From the text: This apparent discrepancy is caused by the myoblasts producing a binding protein in addition to the receptor. This binding protein selectively binds those IGF-1 peptides that have a glutamic acid residue at position 3 from the N-terminal, thus preventing the peptide binding to the cell receptor. This interpretation is established by the following results [determined by the method of Martin and Baxter, J. Biol, Chem. 261: 8754-8760, (1986)] with purified binding proteins (see Table 2).

| Substance | Concentration (percent of that required to give a half-response with hIGF-1) [1] | Potency for binding to the protein where hIGF-1 = 100% [2] | concentration required to give a half-response ([1]; 3H-leucine incorporation) |
| --- | --- | --- | --- |
| Gly--Pro--Leu--Thr--Leu--Cys--: IGF-1 analogue: glutamic acid at position 3 substituted with leucine (GPLTLC; not fully specified (C-terminus); printed as Gly—Pro—Leu—Thr—Leu—Cys—; ends and bridges not checked; also: N-terminal part of IGF-1 analogue, rest of chain not shown) | 18% | 0.5% |  |
| Gly--Pro--Glu--Thr--Leu--Cys--: pure human/bovine/porcine insulin-like growth factor-1, full 70-residue sequence (b3) (GPETLC; not fully specified (C-terminus); ends and bridges not checked; also: N-terminal part of IGF-1, rest of chain not shown) [reference compound] | 100% | 100% | 12 ng/mL |
| Gly--Thr--Leu--Cys--: IGF-1 analogue: Gly, Pro removed and glutamic acid substituted with glycine (GTLC; not fully specified (C-terminus); printed as Gly—Thr—Leu—Cys—; ends and bridges not checked; also: N-terminal part of IGF-1 analogue, rest of chain not shown) | 16% | 1.0% |  |
| Gly--Pro--Arg--Thr--Leu--Cys--: IGF-1 analogue: glutamic acid at position 3 substituted with arginine (GPRTLC; not fully specified (C-terminus); printed as Gly—Pro—Arg—Thr—Leu—Cys—; ends and bridges not checked; also: N-terminal part of IGF-1 analogue, rest of chain not shown) | 5% | < 0.1% |  |
| Gly--Pro--Gly--Gly--Leu--Cys--: IGF-1 analogue: glutamic acid 3 substituted with glycine and threonine 4 with glycine (GPGGLC; not fully specified (C-terminus); printed as Gly—Pro—Gly—Gly—Leu—Cys—; ends and bridges not checked; also: N-terminal part of IGF-1 analogue, rest of chain not shown) | 14% | 0.1% |  |
| Gly--Pro--Lys--Thr--Leu--Cys--: IGF-1 analogue: glutamic acid at position 3 substituted with lysine (GPKTLC; not fully specified (C-terminus); printed as Gly—Pro—Lys—Thr—Leu—Cys—; ends and bridges not checked; also: N-terminal part of IGF-1 analogue, rest of chain not shown) | 11% | 0.1% |  |
| Gly--Pro--Gly--Thr--Leu--Cys--: IGF-1 analogue: glutamic acid at position 3 substituted with glycine (GPGTLC; not fully specified (C-terminus); printed as Gly—Pro—Gly—Thr—Leu—Cys—; ends and bridges not checked; also: N-terminal part of IGF-1 analogue, rest of chain not shown) | 12% | 0.5% |  |
| Gly--Pro--Gln--Thr--Leu--Cys--: IGF-1 analogue: glutamic acid at position 3 substituted with glutamine (GPQTLC; not fully specified (C-terminus); printed as Gly—Pro—Gln—Thr—Leu—Cys—; ends and bridges not checked; also: N-terminal part of IGF-1 analogue, rest of chain not shown) | 18% | 1.0% |  |
| Gly--Pro--Gly--Arg--Leu--Cys--: IGF-1 analogue: glutamic acid 3 substituted with glycine and threonine 4 with arginine (GPGRLC; not fully specified (C-terminus); printed as Gly—Pro—Gly—Arg—Leu—Cys—; ends and bridges not checked; also: N-terminal part of IGF-1 analogue, rest of chain not shown) | 4% | < 0.1% |  |
